Measurements reported in patent publication US11000033B2, “Ketone or oxime compound, and herbicide” (NISSAN CHEMICAL CORPORATION, priority 2014, dated 2021).

Legend:
Format in all cases: in vivo
[1] = test system: rapeseed; assay: Test Example 5: effect on crop by foliage application, plastic box (symbol g); conditions: 320 g/ha, 3 weeks after application
In short: (§1)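 In a plastic box 7 cm deep filled with sterilized diluvial soil, seeds of crops and weeds such as Digitaria ciliaris, Avena fatua and Amaranthus retroflexus are sown in spots and covered with about 1.5 cm of soil before greenhouse growth at 25–30° C.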

[2] = test system: soybean; assay: Test Example 5: effect on crop by foliage application, plastic box (symbol d); conditions: 320 g/ha, 3 weeks after application
In short: as §1

[3] = test system: Lolium multiflorum Lam.; assay: Test Example 4: herbicidal effect by soil treatment (symbol K); conditions: for K (Lolium multiflorum Lam.) herbicidal effect grade: application herbicide amount 320 g/ha; for K: Lolium multiflorum Lam., herbicidal effect grade: 320 g/ha
In short: (§2)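 Seeds were sown in sterilized diluvial soil, covered with about 1.5 cm of soil, and the soil surface was sprayed with a water-diluted emulsion of the compound at a predetermined rate. Plants grew in a greenhouse at 25° C. to 30° C.; effects were scored visually 3 weeks after application.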

[4] = test system: wheat; assay: Test Example 5: effect on crop by foliage application, plastic box (symbol e); conditions: 320 g/ha, 3 weeks after application
In short: as §1

[5] = test system: Echinochloa crus-galli var. crus-galli; assay: Test Example 3: herbicidal effect by foliage application, Wagner pot (symbol H); conditions: application herbicide amount 320 g/ha
In short: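 Steps: fill pot with alluvial soil; add water to 0.1–0.5 cm depth; sow weed and rice seed; grow 14 days at 25–30 °C; spray diluted emulsion over the leaves; rate effect after 3 weeks.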

[6] = test system: corn; assay: Test Example 5: effect on crop by foliage application, plastic box (symbol c); conditions: 320 g/ha, 3 weeks after application
In short: as §1

[7] = test system: Apera spica-venti; assay: Test Example 5: herbicidal effect by foliage application, plastic box (symbol L); conditions: 320 g/ha, 3 weeks after application
In short: (§3)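 Effect is rated 3 weeks after a foliar spray of water-diluted emulsion concentrate at a predetermined herbicide amount. Plants had grown 14 days in a 25° C. to 30° C. greenhouse from seed in sterilized diluvial soil.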

[8] = test system: Setaria viridis; assay: Test Example 4: herbicidal effect by soil treatment (symbol G); conditions: for G (Setaria viridis) herbicidal effect grade: application herbicide amount 320 g/ha; for G: Setaria viridis, herbicidal effect grade: 320 g/ha
In short: as §2

[9] = test system: Digitaria ciliaris; assay: Test Example 5: herbicidal effect by foliage application, plastic box (symbol F); conditions: 320 g/ha, 3 weeks after application
In short: as §3

[10] = test system: Stellaria media; assay: Test Example 4: herbicidal effect by soil treatment (symbol P); conditions: for P (Stellaria media) herbicidal effect grade: application herbicide amount 320 g/ha; for P: Stellaria media, herbicidal effect grade: 320 g/ha
In short: as §2

[11] = test system: Alopecurus myosuroides; assay: Test Example 4: herbicidal effect by soil treatment (symbol J); conditions: for J (Alopecurus myosuroides) herbicidal effect grade: application herbicide amount 320 g/ha; for J: Alopecurus myosuroides, herbicidal effect grade: 320 g/ha
In short: as §2

[12] = test system: wheat; assay: Test Example 4: effect on crop by soil treatment (symbol e); conditions: for e (wheat) effect on crop grade: application herbicide amount 320 g/ha; for e: wheat, effect grade on crop: 320 g/ha
In short: (§4)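 Seeds were sown in spots on sterilized diluvial soil in a plastic box and covered with about 1.5 cm of soil. Plants were then grown in a greenhouse at 25° C. to 30° C.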

[13] = test system: Echinochloa crus-galli var. crus-galli; assay: Test Example 4: herbicidal effect by soil treatment (symbol H); conditions: for H (Echinochloa crus-galli var. crus-galli) herbicidal effect grade: application herbicide amount 320 g/ha; for H: Echinochloa crus-galli var. crus-galli, herbicidal effect grade: 320 g/ha
In short: as §2

[14] = test system: Scirpus juncoides; assay: Test Example 1: herbicidal activity, application before weed generation in submerged conditions (symbol B); conditions: application herbicide amount 320 g/ha
In short: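 Paddy pre-emergence test. Formulated emulsion, water-diluted to a predetermined rate, is applied to floodwater on sowing day; rice transplanted at 2.5 leaves. Effect read at 3 weeks on a 0–5 herbicidal-ratio scale.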

[15] = test system: rice; assay: Test Example 4: effect on crop by soil treatment (symbol b); conditions: for b (directly sowed rice plant) effect on crop grade: application herbicide amount 320 g/ha; for b: directly sowed rice plant, effect grade on crop: 320 g/ha
In short: as §4

[16] = test system: corn; assay: Test Example 4: effect on crop by soil treatment (symbol c); conditions: for c (corn) effect on crop grade: application herbicide amount 320 g/ha; for c: corn, effect grade on crop: 320 g/ha
In short: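 Grown at 25° C. to 30° C. in a greenhouse, the crops came from seed sown spot-wise in sterilized diluvial soil under roughly 1.5 cm of covering soil.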

[17] = test system: Veronica persica; assay: Test Example 5: herbicidal effect by foliage application, plastic box (symbol R); conditions: 320 g/ha, 3 weeks after application
In short: as §3

CCCCCCCON=C(C)CC1CC(O)=C(c2c(C)cc(C)cc2C)C1=O (centres unmarked) [1-054]
g: rapeseed, effect on crop grade [1]: 3 (Herbicidal ratio of 40% or higher and lower than 70%)
d: soybean, effect on crop grade [2]: 0 (Herbicidal ratio of 5% or lower (almost no effect))
K (Lolium multiflorum Lam.) herbicidal effect grade [3]: 5 (Herbicidal ratio of 90% or more (almost completely withered))
e: wheat, effect on crop grade [4]: 0 (Herbicidal ratio of 5% or lower (almost no effect))
herbicidal effect on H (Echinochloa crus-galli var. crus-galli), grade 0-5 [5]: 5 (Herbicidal ratio of 90% or more (almost completely withered))
c: corn, effect on crop grade [6]: 0 (Herbicidal ratio of 5% or lower (almost no effect))
L: Apera spica-venti, herbicidal effect grade [7]: 3 (Herbicidal ratio of 40% or higher and lower than 70%)
G (Setaria viridis) herbicidal effect grade [8]: 5 (Herbicidal ratio of 90% or more (almost completely withered))
F: Digitaria ciliaris, herbicidal effect grade [9]: 2 (Herbicidal ratio of 20% or higher and lower than 40%)
P (Stellaria media) herbicidal effect grade [10]: 0 (Herbicidal ratio of 5% or lower (almost no effect))
J (Alopecurus myosuroides) herbicidal effect grade [11]: 1 (Herbicidal ratio of 5% or higher and lower than 20%)
e (wheat) effect on crop grade [12]: 0 (Herbicidal ratio of 5% or lower (almost no effect))
H (Echinochloa crus-galli var. crus-galli) herbicidal effect grade [13]: 4 (Herbicidal ratio of 70% or higher and lower than 90%)
Herbicidal effect grade, B: Scirpus juncoides [14]: 0 (Herbicidal ratio of 5% or lower (almost no effect))
b (directly sowed rice plant) effect on crop grade [15]: 5 (Herbicidal ratio of 90% or more (almost completely withered))
c (corn) effect on crop grade [16]: 0 (Herbicidal ratio of 5% or lower (almost no effect))
R: Veronica persica, herbicidal effect grade [17]: 0 (Herbicidal ratio of 5% or lower (almost no effect))

CON=C(C)CC1CC(OC(=O)COc2ccc(C(C)=O)cc2)=C(c2c(C)cc(C)cc2C)C1=O (centres unmarked) [1-080]
g: rapeseed, effect on crop (criteria 0-5) [1]: 4 (Herbicidal ratio of 70% or higher and lower than 90%)
d: soybean, effect on crop (criteria 0-5) [2]: 4 (Herbicidal ratio of 70% or higher and lower than 90%)
K: Lolium multiflorum Lam., herbicidal effect grade [3]: 5 (Herbicidal ratio of 90% or more (almost completely withered))
e: wheat, effect on crop (criteria 0-5) [4]: 4 (Herbicidal ratio of 70% or higher and lower than 90%)
herbicidal effect on H (Echinochloa crus-galli var. crus-galli), grade 0-5 [5]: 5 (Herbicidal ratio of 90% or more (almost completely withered))
c: corn, effect on crop (criteria 0-5) [6]: 5 (Herbicidal ratio of 90% or more (almost completely withered))
L: Apera spica-venti, herbicidal effect (criteria 0-5) [7]: 5 (Herbicidal ratio of 90% or more (almost completely withered))
G: Setaria viridis, herbicidal effect grade [8]: 5 (Herbicidal ratio of 90% or more (almost completely withered))
F: Digitaria ciliaris, herbicidal effect (criteria 0-5) [9]: 5 (Herbicidal ratio of 90% or more (almost completely withered))
P: Stellaria media, herbicidal effect grade [10]: 0 (Herbicidal ratio of 5% or lower (almost no effect))
J: Alopecurus myosuroides, herbicidal effect grade [11]: 5 (Herbicidal ratio of 90% or more (almost completely withered))
e: wheat, effect grade on crop [12]: 4 (Herbicidal ratio of 70% or higher and lower than 90%)
H: Echinochloa crus-galli var. crus-galli, herbicidal effect grade [13]: 5 (Herbicidal ratio of 90% or more (almost completely withered))
Herbicidal effect grade, B: Scirpus juncoides [14]: 5 (Herbicidal ratio of 90% or more (almost completely withered))
b: directly sowed rice plant, effect grade on crop [15]: 5 (Herbicidal ratio of 90% or more (almost completely withered))
c: corn, effect grade on crop [16]: 4 (Herbicidal ratio of 70% or higher and lower than 90%)
R: Veronica persica, herbicidal effect (criteria 0-5) [17]: 1 (Herbicidal ratio of 5% or higher and lower than 20%)

CON=C(C)CC1CC(OC(=O)COc2ccc3ccccc3c2)=C(c2c(C)cc(C)cc2C)C1=O (centres unmarked) [1-083]
g: rapeseed, effect on crop (criteria 0-5) [1]: 4 (Herbicidal ratio of 70% or higher and lower than 90%)
d: soybean, effect on crop (criteria 0-5) [2]: 4 (Herbicidal ratio of 70% or higher and lower than 90%)
K: Lolium multiflorum Lam., herbicidal effect grade [3]: 5 (Herbicidal ratio of 90% or more (almost completely withered))
e: wheat, effect on crop (criteria 0-5) [4]: 5 (Herbicidal ratio of 90% or more (almost completely withered))
herbicidal effect on H (Echinochloa crus-galli var. crus-galli), grade 0-5 [5]: 5 (Herbicidal ratio of 90% or more (almost completely withered))
c: corn, effect on crop (criteria 0-5) [6]: 5 (Herbicidal ratio of 90% or more (almost completely withered))
L: Apera spica-venti, herbicidal effect (criteria 0-5) [7]: 5 (Herbicidal ratio of 90% or more (almost completely withered))
G: Setaria viridis, herbicidal effect grade [8]: 5 (Herbicidal ratio of 90% or more (almost completely withered))
F: Digitaria ciliaris, herbicidal effect (criteria 0-5) [9]: 5 (Herbicidal ratio of 90% or more (almost completely withered))
P: Stellaria media, herbicidal effect grade [10]: 0 (Herbicidal ratio of 5% or lower (almost no effect))
J: Alopecurus myosuroides, herbicidal effect grade [11]: 5 (Herbicidal ratio of 90% or more (almost completely withered))
e: wheat, effect grade on crop [12]: 4 (Herbicidal ratio of 70% or higher and lower than 90%)
H: Echinochloa crus-galli var. crus-galli, herbicidal effect grade [13]: 5 (Herbicidal ratio of 90% or more (almost completely withered))
Herbicidal effect grade, B: Scirpus juncoides [14]: 4 (Herbicidal ratio of 70% or higher and lower than 90%)
b: directly sowed rice plant, effect grade on crop [15]: 5 (Herbicidal ratio of 90% or more (almost completely withered))
c: corn, effect grade on crop [16]: 4 (Herbicidal ratio of 70% or higher and lower than 90%)
R: Veronica persica, herbicidal effect (criteria 0-5) [17]: 0 (Herbicidal ratio of 5% or lower (almost no effect))

CC(CC1CC(O)=C(c2c(C)cc(C)cc2C)C1=O)=NOC(C)(C)C (centres unmarked) [1-053]
g: rapeseed, effect on crop grade [1]: 4 (Herbicidal ratio of 70% or higher and lower than 90%)
d: soybean, effect on crop grade [2]: 3 (Herbicidal ratio of 40% or higher and lower than 70%)
K (Lolium multiflorum Lam.) herbicidal effect grade [3]: 5 (Herbicidal ratio of 90% or more (almost completely withered))
e: wheat, effect on crop grade [4]: 0 (Herbicidal ratio of 5% or lower (almost no effect))
herbicidal effect on H (Echinochloa crus-galli var. crus-galli), grade 0-5 [5]: 5 (Herbicidal ratio of 90% or more (almost completely withered))
c: corn, effect on crop grade [6]: 3 (Herbicidal ratio of 40% or higher and lower than 70%)
L: Apera spica-venti, herbicidal effect grade [7]: 3 (Herbicidal ratio of 40% or higher and lower than 70%)
G (Setaria viridis) herbicidal effect grade [8]: 4 (Herbicidal ratio of 70% or higher and lower than 90%)
F: Digitaria ciliaris, herbicidal effect grade [9]: 3 (Herbicidal ratio of 40% or higher and lower than 70%)
P (Stellaria media) herbicidal effect grade [10]: 0 (Herbicidal ratio of 5% or lower (almost no effect))
J (Alopecurus myosuroides) herbicidal effect grade [11]: 3 (Herbicidal ratio of 40% or higher and lower than 70%)
e (wheat) effect on crop grade [12]: 0 (Herbicidal ratio of 5% or lower (almost no effect))
H (Echinochloa crus-galli var. crus-galli) herbicidal effect grade [13]: 5 (Herbicidal ratio of 90% or more (almost completely withered))
Herbicidal effect grade, B: Scirpus juncoides [14]: 3 (Herbicidal ratio of 40% or higher and lower than 70%)
b (directly sowed rice plant) effect on crop grade [15]: 5 (Herbicidal ratio of 90% or more (almost completely withered))
c (corn) effect on crop grade [16]: 1 (Herbicidal ratio of 5% or higher and lower than 20%)
R: Veronica persica, herbicidal effect grade [17]: 2 (Herbicidal ratio of 20% or higher and lower than 40%)
